Laboratory results reported in ChEMBL document CHEMBL1121593, “Synthesis of 2,4-disubstituted 6-methoxy-8-aminoquinoline analogues as potential antiparasitics” (J Med Chem, 1980).

Experiments:
Mus musculus [1] = test: Mean survival time which expresses the antimalarial activity of compound was measured against Plasmodium berghei in mice (Mus musculus) at 80 mg/kg dose; type: functional
Mus musculus [2] = test: (§1) Mean survival time which expresses the antimalarial activity of compound was measured against Plasmodium berghei in mice (Mus musculus) at 640 mg/kg dose; type: functional
Mus musculus [3] = test: Mean survival time which expresses the antimalarial activity of compound was measured against Plasmodium berghei in mice (Mus musculus) a 160 mg/kg dose; type: functional
Mus musculus [4] = test: Mean survival time which expresses the antimalarial activity of compound was measured against Plasmodium berghei in mice (Mus musculus) at 20 mg/kg dose; type: functional
Mus musculus [5] = test: (§2) Mean survival time which expresses the antimalarial activity of compound was measured against Plasmodium berghei in mice (Mus musculus) at 320 mg/kg dose; type: functional
Mus musculus [6] = test: Mean survival time which expresses the antimalarial activity of compound was measured against Plasmodium berghei in mice (Mus musculus) at 40 mg/kg dose; type: functional
Cricetinae gen. sp. [7] = test: (§3) G index is the relative activity to that of glucantime was measured on Leishmania donovani in hamsters.; type: functional, hamster
Mus musculus [8] = test: (§4) Mean survival time which expresses the antimalarial activity of compound was measured against Plasmodium berghei in mice (Mus musculus) at 160 mg/kg dose; type: functional
Plasmodium cynomolgi = test: Radical curative activity in presence of chloroquine against Plasmodium cynomolgi infected Rhesus monkey at 1.3 mg/kg; type: functional
Cricetinae gen. sp. [9] = test: as §3; type: functional, Cricetulus griseus
Mus musculus [10] = test: as §4; type: ADME, organism-based; design: dose 160 mg/kg; settings: in vivo
Mus musculus [11] = test: as §1; type: ADME, organism-based; design: dose 640 mg/kg; settings: in vivo
Mus musculus [12] = test: as §2; type: ADME, organism-based; design: dose 320 mg/kg; settings: in vivo
Mus musculus [13] = test: Mean survival time which expresses the antimalarial activity of compound was measured against Plasmodium berghei in mice (Mus musculus) at […] mg/kg dose; type: functional

Compound | Delta MST (Mus musculus [2]) | Delta MST (Mus musculus [4]) | Delta MST (Mus musculus [6]) | Relative activity (Cricetinae gen. sp. [7]) | Delta MST (Mus musculus [8]) | other results
C=Cc1cc(C)c2cc(OC)cc(NC(C)CCCN)c2n1 (centres undefined) | 6.2 days | 0 days | 0 days | – | – | Delta MST (Mus musculus [1]): 0.6 days; Delta MST (Mus musculus [3]): 0.4 days; Delta MST (Mus musculus [5]): 2.2 days
CCc1cc(C)nc2c(NCCCCCCN(CC)CC)cc(OC)cc12 | 4.9 days | – | 1.3 days | 29.2 | 2.7 days | –
CCc1cc(C)nc2c(NC(C)CCCN)cc(OC)cc12 (centres undefined) | 10.3 days | 1.7 days | 2.3 days | – | 5.1 days | Delta MST (Mus musculus [1]): 3.7 days; Delta MST (Mus musculus [5]): 7.7 days
CCc1cc(C)c2cc(OC)cc(NC(C)CCCN)c2n1 (centres undefined) | – | – | – | 8.99 | – | Cured (Plasmodium cynomolgi): 90%
CCN(CC)CCCCCCNc1cc(OC)cc2c(C)cc(CCBr)nc12 | – | – | 0.3 days | – | 0 days | Relative activity (Cricetinae gen. sp. [9]): 2.6; Deaths (Mus musculus [10]): 5; Deaths (Mus musculus [11]): 5
CCc1cc(C)c2cc(OC)cc(NCCCCCCN(CC)CC)c2n1 | 0.7 days | – | 0.3 days | 130 | 0.3 days | –
COc1cc(NC(C)CCCN)c2ncccc2c1 (centres undefined) [PRIMAQUINE] | – | 4 days | 5 days | 2.1 | – | Deaths (Mus musculus [10]): 2; Deaths (Mus musculus [12]): 5; Deaths (Mus musculus [11]): 5; Delta MST (Mus musculus [13]): 9.4 days
